Assay results from patent US10537611B2, “Methods of treating lung cancer” (Five Prime Therapeutics, Inc., priority 2011, dated 2020).

Assays:
[1] = tested on: NCI-H460 xenograft model; test: NCI-H460 xenograft tumor growth inhibition; assay type: in vivo, mouse; settings: Lung NCI-H460; IP 10 mg/kg BIW; non-amplified; P < 0.05
Source text: The impact of FGFR1-ECD.339-Fc on tumor growth was compared between FGFR1 gene amplified and non-amplified lung cancer xenograft models. Lung cell lines without FGFR1-amplification examined in this experiment were as follows: A549, NCI-H460, NCI-H226, NCI-H2126, NCI-H441, NCI-H358, NCI-H522 and Colo699. Non-amplified cell lines were purchased from ATTC (Manassas, Va.) and cultured according to supplier instructions. Lung cancer xenograft models using non-FGFR1 gene amplified cell lines were carried out substantially as described in Example 2.
Percentage tumor growth inhibition by FGFR1-ECD.339-Fc was determined by area-under-the-curve (AUC) analysis of xenograft growth curves treated with FGFR1-ECD.339-Fc compared to albumin control. […] The difference in FGFR1-ECD.339-Fc-mediated xenograft inhibition between FGFR1 gene amplified and non-amplified lung cancer xenograft models was statistically significant (P=0.0333).

[2] = tested on: DMS53 cells; test: CellTiter-Glo cell number, DMS53; assay type: cell-based, human; settings: 15 μg/ml, 4 days, 10%, 1% or 0.1% FBS
Source text: A panel of lung cancer cell lines displaying potential amplification of the FGFR1 gene was identified using CONAN (http://www.sanger.ac.uk/cgi-bin/genetics/CGP/conan/search.cgi) and Tumorscape (http://www.broadinstitute.org/tumorscape/pages/portalHomejsf). CONAN and Tumorscape represent public data mining tools to extract gene copy number information for predefined or user defined loci across the SNP6.0 dataset of cancer. Lung cancer cell lines DMS53, DMS114, NCI-H1581 and NCI-H520 were identified as having potential amplification of the FGFR1 gene (>4 copies/cell) and were selected for further analysis. Human small cell lung cancer (SCLC) cell lines DMS53 and DMS114 were purchased from ATCC (Manassas, Va.; Cat. No. CRL-2062; Cat. No. CRL-2066, respectfully). The cells were cultured in Waymouth's MB 752/1 medium+10% FBS+2 mM L-glutamine at 37° C. in a humidified atmosphere with 5% CO2. […]
To determine cell number the CellTiter-Glo® Luminescent Cell Viability Assay (Promega, Madison, Wis.) was employed. CellTiter-Glo® is a homogeneous method of determining the number of viable cells in culture based on quantitation of the ATP present, an indicator of metabolically active cells. […] Luminescence was then determined on an EnVision™ Multilabel Plate Reader (PerkinElmer, Boston, Mass.) with a 0.2 second integration time. Results were expressed as relative light units (RLU)/well.

[3] = tested on: lung cancer cell lines with FGFR1 gene amplification; test: Tritiated thymidine incorporation, FGFR1 gene amplified lung cancer cell lines (average); assay type: cell-based, human; settings: across all FBS concentrations, vs control ECD-Fc
Procedure: To determine the impact of FGFR1-ECD.339-Fc on lung cancer cell lines in tissue culture, cells were plated in a Microtest™ 96-well tissue culture plate (Becton Dickenson, Franklin Lakes, N.J.) at a density of 5×10^3 cells/well in medium containing 10%, 1% or 0.1% FBS in the presence or absence of 15 μg/ml FGFR1-ECD.339-Fc (SEQ ID NO: 6) or an unrelated ECD-Fc fusion protein (as a negative control). Plates were incubated at 37° C. at 5% CO2 for 4 days and then assayed to determine the impact of FGFR1-ECD.339-Fc on cell number and proliferation.
To determine the impact of FGFR1-ECD.339-Fc on cell proliferation the tritiated thymidine ([3H]-TdR) incorporation assay was employed. […] After 16-h exposure, tritiated thymidine incorporation was assessed. […] Thymidine incorporation was determined as counts per minute (cpm) on a Topcount NXT (PerkinElmer) scintillation counter. Results were expressed as cpm/well.
The impact of FGFR1-ECD.339-Fc on cell proliferation as assessed by tritiated thymidine incorporation was also compared between FGFR1 gene amplified and non-amplified lung cancer cell lines (FIG. 4). An average percent reduction in cell proliferation with FGFR1-ECD.339-Fc addition was determined across all FBS concentrations examined for each FGFR1 gene amplified cell line and the panel of non-FGFR1 gene amplified cell lines indicated above. […]

Substance: FGFR1-ECD.339-Fc: human FGFR1 extracellular domain ending at amino acid 339 fused to an Fc; SEQ ID NO: 6 (mature form), SEQ ID NO: 5 with signal peptide
- TGI (%) [1]: 35%
- cell number (CellTiter-Glo) [2]: reduced
- average reduction in CPM (tritiated thymidine incorporation) [3]: 62.75%
